These results are taken from patent publication US10723998B2, “Application of ethyl p-methoxycinnamate and derivatives thereof in maintaining self-renewal and pluripotency of stem cells” (NORTHEAST NORMAL UNIVERSITY, priority 2015, dated 2020).

The test system of one experiment is Oct4 protein. Briefly: Oct4 protein expression by Western Blot in P19 cells. It is filed as cell-based, mouse. To be noted: 5 μg/mL, 24 h, DMSO control, FIG. 3. Here is the method: The effect of ethyl p-methoxycinnamate on Oct4 protein expression was assayed using a Western Blot method. Mouse teratoma cells P19 were inoculated in a 6-well plate. After 24 h, ethyl p-methoxycinnamate with a final concentration of 5 μg/mL was added to continue to act for another 24 h, and the control group was treated with DMSO. After the cells were washed with PBS three times, the cells were scraped with a scraper, transferred to an EP tube, and centrifuged at 4000 rpm for 5 min. The supernatant was discarded. 90 μL of lysis solution (50 mM Tris-HCl pH 7.5, 150 mM NaCl, 1 mM NaF, 0.5% NP-40, 2 μg/mL Aprotinin, and 1 mM PMSF) was added to each tube of precipitate, and the EP tube was treated on ice for 30 min and vortexed once every 5 min, so that the cells were completely lysed. After centrifugation at 12000 rpm for 10 min, the supernatant was transferred to a new EP tube, 1/3 volume of 4× protein loading buffer was added, mixed well, and boiled for 10 min, and after instantaneous centrifugation, the mixture was subjected to electrophoresis or placed at −80° C. to be frozen for standby use.
A transfer membrane buffer was prepared and precooled at 4° C. A PVDF membrane was soaked in methanol for 40 s, then taken out and soaked in the transfer membrane buffer for standby use. […]
On the technique in general: In western blotting, separated proteins are transferred to a membrane and probed.

The next experiment relates to Oct4 promoter. Description: Oct4 promoter luciferase reporter assay (pGL3-Oct4P-Basic) in P19 cells. In kind it is cell-based, mouse. To be noted: 5 μg/mL, 12-24 h, DMSO control, FIG. 1. An excerpt:
According to a method described in literature (Yang H M, Do H J, Oh J H, et al. Characterization of putative cis-regulatory elements that control the transcriptional activity of the human Oct4 promoter[J]. Journal of cellular biochemistry, 2005, 96(4):821-830), the promoter of Oct4 gene was picked and cloned into pGL3-Basic, so as to construct pGL3-Oct4P-Basic reporter plasmid. One day before transfection, mouse teratoma cells P19 were inoculated into a 6-well cell culture plate at a density of 2×10^5 cells/well to make the cells grown to about 80% before transfection. […]
Luciferase Reporter Assay System and FluoStar Optima were used to assay the luciferase activity of the transfected cell lysis solution. To 45 μL of the cell lysis solution was added 5 μL of Assay Cocktail reagent, after they were mixed well, 100 μL of Luciferin reaction solution was added, and fluorescence counting in 2 s was measured using FluoStar Optima instrument, which reflected the activity level of the studied plasmid reporter genes expressing firefly luciferase. […] An absorption value at 450 nm was assayed using a microplate reader, which reflected the activity level of internal reference plasmid pCMV-β-gal expressing β-galactosidase. […] The relative luciferase activity of different samples was calculated through the following equation: […]
For orientation: A reporter such as luciferase makes a cellular process visible.

As for `CCOC(=O)C=Cc1ccc(OC)cc1` [ethyl p-methoxycinnamate], the “effect on the expression of Oct4 protein” value in the experiment with Oct4 protein is “can promote the expression of Oct4 protein”. Also, the “effect on the activity of Oct4 promoter (relative luciferase activity)” value in the experiment on Oct4 promoter was “reached a statistically significant difference (*p<0.05)”.
